According to patent US20080015189A1, “Antimicrobial photoinactivation using chalcogen analogs of benzo(A)phenoxazinium dyes” (The General Hospital Corporation, priority 2006, published 2008):

What was measured:
[1] = test system: Enterococcus faecalis (ATCC 29212); experiment: Photodynamic inactivation of E. faecalis (survival fraction by CFU after red light); format: cell-based; details: 2 μM dye
From the text: (§1) The microorganisms studied were Escherichia coli (ATCC 25922), Enterococcus faecalis (ATCC 29212), and Candida albicans (ATCC 18804). The microorganism species chosen to evaluate the photoactivities of the dyes in the present study are important pathogens in the type of infections, such as wounds and burns, likely to be amenable to photodynamic therapy (PDT). E. faecalis is typical of Enterococci that frequently develop vancomycin resistance and are important nocosomial pathogens in post-surgical wounds and burns.^42 Although E. coli is generally thought of as an intestinal or urinary tract pathogen, there is increasing concern about its presence in wound infections and its ability to develop extended spectrum beta-lactamase resistance.^43,44 C. albicans is increasingly found in nocosomial infections in burns^45 and, to a lesser extent, in surgical wounds.^46
(§2) Cells were grown at 37° C. in aerobic conditions in a shaker at 150 rpm. Brain-heart infusion broth (Difco, BD Diagnostic Systems, Sparks, Md.) was used for E. coli and E. faecalis, YM medium (Difco) was used for C. albicans. Exponential cultures obtained by reculturing stationary overnight precultures were used for all experiments. E. coli and E. faecalis were grown in fresh medium for approximately 1 h to a density of 10^8 cells/mL; the OD values at 650 nm were 0.6. C. albicans was grown for approximately 4 h to approximate density of 10^7 cells/mL corresponding to an OD of 6 at 650 nm (ten fold dilution measured). Exact cell numbers were confirmed by counting colony forming units obtained after serial dilution on square BHI (or YM for Candida) agar plates.
(§3) Stock solutions (2 mM) of the three chalcogen dyes were prepared in water and stored at 4° C. in the dark for no longer than 1 month before use. A non-coherent light source with interchangeable fiber bundles (LumaCare, London, UK) was employed. Thirty-nm band pass filters allowed total powers of roughly 1 W to be obtained from 630+/−15 nm for EtNBA (1), 652+/−15 nm for EtNBS (2), and 660+/−15 nm for EtNBSe (3).
(§4) Suspensions of microorganisms were incubated for 10 minutes with photosensitizer in the dark at room temperature. Unbound photosensitizer was washed out by centrifugation of the mixture of dye and microorganisms for 6 minutes at 1550g, followed by resuspension of washed pellets in 10 mL PBS without Ca^++/Mg^++. Aliquots (200 μL) of these suspensions were used for photodynamic inactivation (PDI) experiments; the remaining suspensions were centrifuged again, and the pellets were dissolved in 3 mL 10% SDS for at least 24 hours. These suspensions were used for photosensitizer uptake measurement. The fluorescence of dissolved pellets was measured on a spectrofluorimeter (FluoroMax3, SPEX Industries, Edison, N.J.). For EtNBA (1), the excitation wavelength was 625 nm, and the emission spectra of the solution were recorded from 630 to 750 nm. For EtNBS (2), the excitation wavelength was 645 nm, and the range for emission was 650 to 750nm. For EtNBSe (3), the excitation wavelength was 655 nm, and the emission was recorded in the range from 660 to 750 nm. The fluorescence was calculated from the height of the peaks recorded. Calibration curves were made from pure photosensitizer dissolved in 10% SDS and used for determination of sensitizer concentration in the suspension. Uptake values were obtained by dividing the number of nmol of sensitizer in the dissolved pellet by the number of colony-forming units (CFU) obtained by serial dilutions and the number of photosensitizer molecules/cell calculated using Avogadro's number.
Illumination was performed either after or before excess dye was washed out. Aliquots of 200 μL of cell suspension were placed in 96-well plates and illuminated with appropriate light at room temperature. Fluences ranged from 0 to 80 Jcm^−2 at an irradiance of 60-100 mWcm^−2. Exact power was measured with a laser power meter (model FM/GS, Coherent, Santa Clara, Calif.).

[2] = test system: Escherichia coli (ATCC 25922); experiment: Photodynamic inactivation of E. coli (survival fraction by CFU after red light); format: cell-based; details: 5 μM dye
From the text: as §1, §2, §3
as §4, with “For EtNBS (2), the excitation wavelength was 645 nm, and the range for emission was 650 to 750nm.” left out, “Calibration curves were made from pure photosensitizer dissolved in 10% SDS and used for determination of sensitizer concentration in the suspension.” left out
(§5) Illumination was performed either after or before excess dye was washed out. […] Exact power was measured with a laser power meter (model FM/GS, Coherent, Santa Clara, Calif.).

[3] = test system: Candida albicans (ATCC 18804); experiment: Photodynamic inactivation of C. albicans (survival fraction by CFU after red light); format: cell-based; details: 20 μM dye, wash
From the text: as §1
Cells were grown at 37° C. in aerobic conditions in a shaker at 150 rpm. […] C. albicans was grown for approximately 4 h to approximate density of 10^7 cells/mL corresponding to an OD of 6 at 650 nm (ten fold dilution measured). […]
Suspensions of microorganisms were incubated for 10 minutes with photosensitizer in the dark at room temperature. […] The fluorescence of dissolved pellets was measured on a spectrofluorimeter (FluoroMax3, SPEX Industries, Edison, N.J.). For EtNBA (1), the excitation wavelength was 625 nm, and the emission spectra of the solution were recorded from 630 to 750 nm. […] For EtNBSe (3), the excitation wavelength was 655 nm, and the emission was recorded in the range from 660 to 750 nm. The fluorescence was calculated from the height of the peaks recorded. […] Uptake values were obtained by dividing the number of nmol of sensitizer in the dissolved pellet by the number of colony-forming units (CFU) obtained by serial dilutions and the number of photosensitizer molecules/cell calculated using Avogadro's number.
as §5

[4] = test system: Enterococcus faecalis (ATCC 29212); experiment: Dye uptake and binding by microbial cells, E. faecalis (fluorescence of SDS-dissolved pellets); format: cell-based; details: 2 μM dye; for cell uptake (molecules per cell), rank order: 10 minute incubation, wash
Description: as §4
(§6) In order to do so, the uptake of dye was measured in terms of molecules per cell by carrying out 10 minute incubations with the same concentration of dyes that was used for photoinactivation, followed by a wash to remove residual incubating solution.
(§7) The bacterial pellets resulting from the incubation with photosensitizer were dissolved in 10% SDS to give a homogeneous solution, and comparison of the resulting fluorescence intensities with a calibration curve prepared with known concentrations of dye in the same solvent yielded the amount of dye in the pellet. […] For the fungus C. albicans, an even higher concentration of dye (20 μM) was used, because the eukaryotic cells are ten times bigger than the prokaryotic bacterial cells.

[5] = test system: Escherichia coli (ATCC 25922); experiment: Dye uptake and binding by microbial cells, E. coli (fluorescence of SDS-dissolved pellets); format: cell-based; details: 5 μM dye; for cell uptake (molecules per cell), rank order: 10 minute incubation, wash
Description: as §4, §6, §7

[6] = test system: Candida albicans (ATCC 18804); experiment: Dye uptake and binding by microbial cells, C. albicans (fluorescence of SDS-dissolved pellets); format: cell-based; details: 20 μM dye
Description: as §4, §6, §7

[7] = Quantum yield of singlet oxygen formation (1,3-diphenylisobenzofuran bleaching); format: physicochemical; details: 1,3-diphenylisobenzofuran method, relative to Methylene Blue, 25° C.
From the text: All solvents were reagent grade and used as received.
(§8) The relative photoactivities of the three photosensitizers studied herein were gauged by their abilities to generate singlet oxygen (^1O2) when illuminated with a beam of red light having an adjusted intensity such that each dye absorbed the same number of photons per unit time. […] Finally, because of the relevance of lipophilicity to the present studies, the partition coefficients for the PS between 2-octanol and phosphate-buffered saline (pH=7.4) are listed^18.

[8] = Partition coefficient between 2-octanol and pH 7.4 buffered saline; format: physicochemical; details: for LogP, partition coefficient: pH 7.4
From the text: as §8

[9] = in vivo; cited from earlier work
[10] = Absorption and fluorescence spectra, fluorescence quantum yield; details: for λfl(nm), fluorescence maximum: in ethanol; for λabs(nm), absorption maximum: in ethanol containing 0.1% acetic acid; for Φfl, absolute fluorescence quantum yield: relative to Cresyl Violet standard at 25° C.
Description: UV/visible absorption spectra were recorded using an HP 8453 spectrophotometer. Corrected fluorescence spectra were recorded using a SPEX Fluorolog2 (solvent measurements) or a FluoroMax3 (microorganism measurements), SPEX Industries, Edison, N.J. Fluorescence quantum yields were measured relative to Cresyl Violet standard at 25° C.^32 Quantum yields for ^1O2 formation were determined by measuring the ^1O2-mediated bleaching of 1,3-diphenylisobenzofuran^12 relative to Methylene Blue (0.50)^33 at 25° C. ^1H NMR spectra were obtained using a Varian 400 MHz spectrometer with TMS as internal standard.

[11] = reference standard value, 25° C.; cited from earlier work

Compound | comparison of killing curves with and without a wash [1] | cell uptake (molecules per cell), rank order [4] | fraction of total dye added that was bound to the cells [5] | cell uptake (molecules per cell), rank order [5] | fraction of total dye added that was bound to the cells [6] | 1O2, absolute quantum yield for singlet oxygen formation [7] | LogP, partition coefficient [8] | toxicity in the dark [9] | λfl(nm), fluorescence maximum [10] [nm] | λabs(nm), absorption maximum [10] [nm] | Φfl, absolute fluorescence quantum yield [10] | also measured
5-ethylamino-9-diethylaminobenzo[a]phenothiazinium [Dye 2] | the two curves are almost identical | EtNBSe (3)>EtNBS (2)>EtNBA (1) | approximately 75% | EtNBSe (3)>EtNBS (2)>EtNBA (1) | essentially quantitative | 0.03 | 2.76 | little or no toxicity in the dark | 693 | 654 | 0.21 | killing of cells ([1]; wash, 64 J/cm^2 of 652-nm light): > 99.9%; killing of cells ([2]; wash, 64 J/cm^2): more than 99%; killing of cells ([3]; 64 J/cm^2): > 98%
CCNc1cc2[o+]c3cc(N(CC)CC)ccc3nc2c2ccccc12 [Dye 1, 5-Ethylamino-9-diethylaminobenzo[a]phenoxazinium] | – | EtNBSe (3)>EtNBS (2)>EtNBA (1) | – | EtNBSe (3)>EtNBS (2)>EtNBA (1) | approximately 75% | 0.003 | 2.69 | little or no toxicity in the dark | 660 | 632 | 0.27 | killing of cells ([1]; wash, 80 J/cm^2 of 635-nm light): 95%; killing of cells ([2]; wash, 80 J/cm^2): 90%; killing of cells ([3]; 80 J/cm^2): > 97%; cell uptake (molecules per cell), comparison with EtNBSe (3) ([6]; 10 minute incubation, wash): significantly lower
CCN=c1cc2[se]c3cc(N(CC)CC)ccc3nc-2c2ccccc12 [Dye 3, 5-Ethylamino-9-diethylaminobenzo[a]phenoselenazinium chloride] | no significant difference in the two killing curves | EtNBSe (3)>EtNBS (2)>EtNBA (1) | essentially quantitative | EtNBSe (3)>EtNBS (2)>EtNBA (1) | essentially quantitative | 0.78 | – | – | 703 | 661 | 0.03 | killing of cells ([1]; wash, 8 J/cm^2 of 660-nm light): > 99.999%; killing of cells (logs) ([1]; wash, 8 J/cm^2 of 660-nm light): 5.5 logs; comparison of killing curves with and without a wash [2]: bacteria washed free of incubating solution were actually killed slightly (but not significantly) more than those of the non-wash group; killing of cells ([2]; wash, 32 J/cm^2): > 99.9999%; killing of cells (logs) ([2]; wash, 32 J/cm^2): > 6 logs; killing of cells ([3]; 4 J/cm^2): more than 99%; fraction of total dye added that was bound to the cells [4]: approximately 75%; logP ([8]; between 2-octanol and pH 7.4 buffered saline): 2.08
CN(C)c1ccc2nc3ccc(=[N+](C)C)cc-3sc2c1 [Methylene Blue] | – | – | – | – | – | – | – | – | – | – | – | quantum yield for 1O2 formation of the standard [11]: 0.50
